Laboratory results: the NIST ThermoML archive (doi:10.1016/j.fluid.2015.07.012)
± gives the expanded uncertainty stated by the source.

Experiment: xn = mol fraction of the nth substance listed
Conditions: Liquid; for viscosity: Capillary tube (Ostwald / Ubbelohde) method; for mass density: Vibrating tube method

CO [methanol] + O
Conditions	mass density, 10000 kPa [kg/m3]	mass density, 20000 kPa [kg/m3]	mass density, 30000 kPa [kg/m3]	mass density, 40000 kPa [kg/m3]	viscosity, 10000 kPa [mPa·s]	viscosity, 20000 kPa [mPa·s]	viscosity, 30000 kPa [mPa·s]	viscosity, 40000 kPa [mPa·s]
350.7 K, x1 = 0.1	945.55 ± 10	949.82 ± 10	954.11 ± 10	958.39 ± 10	0.448 ± 0.014	0.454 ± 0.014	0.458 ± 0.014	0.473 ± 0.015
350.7 K, x1 = 0.2	917.41 ± 10	921.49 ± 10	927.03 ± 10	931.54 ± 10	0.503 ± 0.013	0.514 ± 0.014	0.526 ± 0.014	0.543 ± 0.014
350.7 K, x1 = 0.3	889.97 ± 10	895.56 ± 10	901.14 ± 10	906.05 ± 10	0.514 ± 0.013	0.528 ± 0.013	0.542 ± 0.013	0.558 ± 0.014
350.7 K, x1 = 0.4	865.13 ± 10	870.55 ± 10	876.99 ± 10	882.71 ± 10	0.512 ± 0.013	0.529 ± 0.013	0.544 ± 0.014	0.565 ± 0.013
350.7 K, x1 = 0.6	819.84 ± 10	827.75 ± 10	835.46 ± 10	842.38 ± 10	0.449 ± 0.013	0.47 ± 0.013	0.494 ± 0.013	0.519 ± 0.013
350.7 K, x1 = 0.8	780.91 ± 10	789.25 ± 10	797.6 ± 10	805.96 ± 10	0.379 ± 0.013	0.4 ± 0.013	0.416 ± 0.013	0.443 ± 0.013
350.7 K, x1 = 1	–	–	–	–	0.298 ± 0.012	0.313 ± 0.012	0.331 ± 0.012	0.351 ± 0.012
373.2 K, x1 = 0.1	928.71 ± 10	932.78 ± 10	939.53 ± 10	943.52 ± 10	0.33 ± 0.013	0.337 ± 0.013	0.339 ± 0.013	0.347 ± 0.013
373.2 K, x1 = 0.2	900.41 ± 10	904.78 ± 10	911.46 ± 10	914.74 ± 10	0.358 ± 0.013	0.368 ± 0.013	0.372 ± 0.013	0.382 ± 0.014
373.2 K, x1 = 0.3	870.61 ± 10	877.31 ± 10	883.51 ± 10	889.33 ± 10	0.364 ± 0.013	0.378 ± 0.013	0.385 ± 0.013	0.398 ± 0.014
373.2 K, x1 = 0.4	845.4 ± 10	851.97 ± 10	858.91 ± 10	864.81 ± 10	0.36 ± 0.013	0.375 ± 0.013	0.382 ± 0.013	0.399 ± 0.014
373.2 K, x1 = 0.6	799.33 ± 10	807.98 ± 10	817.6 ± 10	823.64 ± 10	0.324 ± 0.013	0.342 ± 0.013	0.353 ± 0.013	0.368 ± 0.013
373.2 K, x1 = 0.8	758.8 ± 10	770.24 ± 10	780.53 ± 10	789.08 ± 10	0.276 ± 0.012	0.294 ± 0.012	0.307 ± 0.012	0.326 ± 0.013
373.2 K, x1 = 1	725.29 ± 10	737.85 ± 10	748.83 ± 10	758.66 ± 10	0.227 ± 0.012	0.25 ± 0.012	0.259 ± 0.012	0.275 ± 0.012
476.2 K, x1 = 0.1	822.65 ± 11	831.4 ± 11	838.61 ± 11	845.82 ± 11	0.141 ± 0.011	0.144 ± 0.011	0.148 ± 0.011	0.151 ± 0.011
476.2 K, x1 = 0.2	781.47 ± 11	792.25 ± 11	802.47 ± 11	810.27 ± 11	0.14 ± 0.011	0.143 ± 0.011	0.15 ± 0.011	0.152 ± 0.011
476.2 K, x1 = 0.3	746.74 ± 11	760.72 ± 11	772.18 ± 10	780.67 ± 10	0.136 ± 0.011	0.144 ± 0.011	0.146 ± 0.011	0.152 ± 0.011
476.2 K, x1 = 0.4	714.67 ± 10	730.97 ± 10	744.11 ± 10	754.89 ± 10	0.129 ± 0.011	0.138 ± 0.011	0.144 ± 0.011	0.149 ± 0.011
476.2 K, x1 = 0.6	664.45 ± 10	685.36 ± 10	703.08 ± 10	715.13 ± 10	0.115 ± 0.011	0.123 ± 0.011	0.131 ± 0.011	0.14 ± 0.011
476.2 K, x1 = 0.8	617.54 ± 10	647.18 ± 10	668.6 ± 10	683.43 ± 10	0.101 ± 0.011	0.113 ± 0.011	0.122 ± 0.011	0.129 ± 0.011
476.2 K, x1 = 1	576.84 ± 10	612.56 ± 10	636.82 ± 10	655.67 ± 10	0.088 ± 0.011	0.1 ± 0.011	0.109 ± 0.011	0.116 ± 0.011
